From ChEMBL document CHEMBL5523735 (J Med Chem, 2024)
Values after ≈ are worked out from the molar mass of the structure shown.

What was measured:
[1] = target: T1, P2Y purinoceptor 14 (Homo sapiens) (UniProt Q15391)
T1 sequence (whole entry): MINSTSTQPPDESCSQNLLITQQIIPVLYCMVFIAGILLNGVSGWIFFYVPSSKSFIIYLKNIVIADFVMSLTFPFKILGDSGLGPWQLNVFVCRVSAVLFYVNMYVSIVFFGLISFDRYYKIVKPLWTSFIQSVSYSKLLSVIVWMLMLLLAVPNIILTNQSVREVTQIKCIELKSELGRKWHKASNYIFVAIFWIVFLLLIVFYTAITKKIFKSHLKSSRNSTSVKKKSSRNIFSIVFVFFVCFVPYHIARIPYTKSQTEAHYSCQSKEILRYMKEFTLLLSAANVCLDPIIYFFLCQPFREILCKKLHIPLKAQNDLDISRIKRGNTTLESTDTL
Description: Antagonist activity at P2Y14R (unknown origin) stably expressed in HEK293 cells assessed as inhibition of forskolin-induced cAMP production at 100 nM by cAMP-Glo assay relative to control

P2Y purinoceptor 14 = target: T2, P2Y purinoceptor 14 (Homo sapiens, UniProt Q15391); test: Antagonist activity at P2Y14R (unknown origin) stably expressed in HEK293 cells assessed as inhibition of forskolin-induced cAMP production by cAMP-Glo assay; format: functional, cell-based
T2 sequence (Q15391 whole entry): T1 sequence (whole entry)

[2] = Aqueous solubility of compound in double distilled water at pH 7 by spectrometry; format: physicochemical; details: buffer
[3] = Aqueous solubility of compound in SGF at pH 1.2 by spectrometry; format: ADME
[4] = Aqueous solubility of compound in PBS at pH 7.4 by spectrometry; format: physicochemical; details: buffer
[5] = Aqueous solubility of compound in SIF at pH 6.8 by spectrometry; format: ADME; details: simulated gi fluid
P2Y purinoceptor 12 = P2Y purinoceptor 12 (Homo sapiens, UniProt Q9H244); test: Inhibition of P2Y12R (unknown origin) expressed in HEK293 cells assessed as restoration of cAMP reduction; format: functional, cell-based
P2Y purinoceptor 6 = P2Y purinoceptor 6 (Homo sapiens, UniProt Q15077); test: Inhibition of P2Y6R (unknown origin) expressed in HEK293 cells assessed as decrease in IP3 reduction
[6] = Metabolic stability in human liver microsomes measured for 90 mins; format: ADME, Microsome; details: 1.5 h
P2Y purinoceptor 4 = P2Y purinoceptor 4 (Homo sapiens, UniProt P51582); test: Inhibition of P2Y4R (unknown origin) expressed in HEK293 cells assessed as decrease in IP3 production; format: functional, cell-based
[7] = HEK293, filed as antagonist, dose 100.0 nM

P2Y purinoceptor 6, sequence (Q15077 whole entry): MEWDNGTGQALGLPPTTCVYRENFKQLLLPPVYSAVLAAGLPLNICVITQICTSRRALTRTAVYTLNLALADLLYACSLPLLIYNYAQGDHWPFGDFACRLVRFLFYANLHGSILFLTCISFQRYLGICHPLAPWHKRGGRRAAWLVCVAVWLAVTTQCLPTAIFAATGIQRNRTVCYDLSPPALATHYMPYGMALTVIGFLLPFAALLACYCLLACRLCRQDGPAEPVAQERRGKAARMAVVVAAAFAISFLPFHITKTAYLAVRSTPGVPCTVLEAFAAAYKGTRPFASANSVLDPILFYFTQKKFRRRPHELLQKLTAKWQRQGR
P2Y purinoceptor 4, sequence (P51582 whole entry): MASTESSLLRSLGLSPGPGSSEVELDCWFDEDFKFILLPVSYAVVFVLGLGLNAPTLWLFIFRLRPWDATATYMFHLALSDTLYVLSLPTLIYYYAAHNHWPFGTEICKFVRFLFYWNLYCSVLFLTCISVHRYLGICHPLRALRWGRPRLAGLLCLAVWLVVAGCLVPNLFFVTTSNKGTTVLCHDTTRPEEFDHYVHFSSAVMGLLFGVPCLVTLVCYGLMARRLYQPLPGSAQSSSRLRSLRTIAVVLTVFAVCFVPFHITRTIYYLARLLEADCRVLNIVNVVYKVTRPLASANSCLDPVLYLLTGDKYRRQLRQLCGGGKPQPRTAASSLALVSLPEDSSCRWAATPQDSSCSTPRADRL
P2Y purinoceptor 12, sequence (Q9H244 whole entry): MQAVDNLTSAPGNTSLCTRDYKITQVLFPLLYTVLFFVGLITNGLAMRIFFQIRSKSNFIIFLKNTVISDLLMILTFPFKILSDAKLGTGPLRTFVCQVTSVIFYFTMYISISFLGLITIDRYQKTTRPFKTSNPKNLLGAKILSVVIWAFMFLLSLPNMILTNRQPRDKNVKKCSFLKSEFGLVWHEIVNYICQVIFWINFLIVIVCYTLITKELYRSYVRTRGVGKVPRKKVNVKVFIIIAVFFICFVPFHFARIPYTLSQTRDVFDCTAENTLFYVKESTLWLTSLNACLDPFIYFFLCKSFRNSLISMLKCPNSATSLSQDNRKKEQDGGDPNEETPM

inhibition [1, 7] [%] | IC50 (P2Y purinoceptor 14) [nM] | Structure (SMILES) | other results
44.3 |  | Cc1ccc(Oc2sc(C(=O)O)cc2NC(=O)c2ccc(C(C)C)cc2)cn1 | 
40.4 |  | Cc1ccc(C(=O)Nc2cc(C(=O)O)sc2Oc2ccccc2Cl)cc1 | 
41.7 |  | Cc1ccc(Nc2sc(C(=O)O)cc2NC(=O)c2ccc(C)cc2)cc1 | 
60.1 |  | Cc1ccc(C(=O)Nc2cc(C(=O)O)sc2Oc2ccc(C)nc2)nc1 | 
62.8 |  | Cc1ccc(C(=O)Nc2cc(C(=O)O)sc2Oc2ccc(S(C)(=O)=O)cc2)cc1 | 
99.4 | 6.53 | Cc1ccc(C(=O)Nc2cc(C(=O)O)sc2Oc2ccc(C)nc2)cc1 | solubility [2]: 0.067 µg/mL (≈ 0.182 µM); solubility ([3]; SGF, read-out: solubility): 0.844 µg/mL (≈ 2.29 µM); solubility [4]: 2.37 µg/mL (≈ 6.43 µM); solubility [5]: 0.189 µg/mL (≈ 0.513 µM)
81.9 | 13 | Cc1ccc(Oc2sc(C(=O)O)cc2NC(=O)c2ccccc2)cn1 | 
69.6 | 87.7 | Cc1ccc(C(=O)Nc2cc(C(=O)O)sc2Oc2cccc(F)c2)cc1 | 
59.8 |  | CCc1ccc(C(=O)Nc2cc(C(=O)O)sc2Oc2ccc(C)nc2)cc1 | 
44.1 |  | Cc1ccc(C(=O)Nc2cc(C(=O)O)sc2Oc2ccc(C(=O)O)cc2)cc1 | 
62.6 |  | Cc1ccc(C(=O)Nc2cc(C(=O)O)sc2Oc2ccc(C(F)(F)F)cc2)cc1 | 
69.8 | 24500 | COc1ccc(Oc2sc(C(=O)O)cc2NC(=O)c2ccc(C)cc2)cc1 | 
66.3 | 124 | CCCc1ccc(Oc2sc(C(=O)O)cc2NC(=O)c2ccc(C)cc2)cc1 | 
83.9 | 3130 | Cc1ccc(Oc2sc(C(=O)O)cc2NC(=O)c2cnc(C)nc2)cn1 | 
74.8 | 60.6 | Cc1ccc(C(=O)Nc2cc(C(=O)O)sc2Oc2ccc(F)cc2)cc1 | 
66 | 18600 | CC(=O)Nc1ccc(Oc2sc(C(=O)O)cc2NC(=O)c2ccc(C)cc2)cc1 | 
83.4 | 17.6 | Cc1ccc(C(=O)Nc2cc(C(=O)O)sc2Oc2ccc(F)nc2)cc1 | solubility [2]: 0.041 µg/mL (≈ 0.11 µM); solubility ([3]; SGF, read-out: solubility): 0.036 µg/mL (≈ 0.0967 µM); solubility [4]: 3.253 µg/mL (≈ 8.74 µM); solubility [5]: 1.202 µg/mL (≈ 3.23 µM)
97.4 | 4.01 | Cc1ccc(Oc2sc(C(=O)O)cc2NC(=O)c2ccc(C)cc2)cc1 | 
43.5 |  | Cc1ccc(C(=O)Nc2cc(C(=O)O)sc2Oc2ccncc2)cc1 | 
55.8 |  | Cc1ccc(C(=O)Nc2cc(C(=O)O)sc2Oc2cccc(C)c2)cc1 | 
52.8 |  | Cc1ccc(C(=O)Nc2cc(C(=O)O)sc2Oc2cccc(C(F)(F)F)c2)cc1 | 
116 | 7.51 | C#Cc1ccc(C(=O)Nc2cc(C(=O)O)sc2Oc2ccc(C)nc2)cc1 | 
90.6 | 0.55 | Cc1ccc(C(=O)Nc2cc(C(=O)O)sc2Oc2ccc(C)cn2)cc1 | solubility [2]: 0.039 µg/mL (≈ 0.106 µM); solubility ([3]; SGF, read-out: solubility): 0.03 µg/mL (≈ 0.0814 µM); solubility [4]: 1.7 µg/mL (≈ 4.61 µM); solubility [5]: 0.109 µg/mL (≈ 0.296 µM)
57.1 |  | Cc1ccc(C(=O)Nc2cc(C(=O)O)sc2Oc2ccccc2C(F)(F)F)cc1 | 
 | 1.52 | O=C(CCCNC(=S)Nc1ccc2c(c1)C(=O)OC21c2ccc(O)cc2Oc2cc(O)ccc21)NCCCC(=O)N1CCC(c2ccc(-c3cc(C(=O)O)cc4cc(-c5ccc(C(F)(F)F)cc5)ccc34)cc2)CC1 | 
74.9 | 1690 | Cc1ccc(C(=O)Nc2cc(C(=O)O)sc2Oc2ccccn2)cc1 | 

Second part, the compound before the results:

Structure (SMILES) | inhibition [1, 7] [%] | IC50 (P2Y purinoceptor 14) [nM] | other results
Cc1ccc(C(=O)Nc2cc(C(=O)O)sc2Oc2ccccc2)cc1 | 42.3 |  | 
Cc1ccc(C(=O)Nc2cc(C(=O)O)sc2Oc2ccccc2C)cc1 | 45.8 |  | 
COc1cccc(Oc2sc(C(=O)O)cc2NC(=O)c2ccc(C)cc2)c1 | 63.2 |  | 
Cc1ccc(Oc2sc(C(=O)O)cc2NC(=O)c2ccc(C(C)(C)C)cc2)cn1 |  |  | inhibition ([1]; HEK293, dose 100.0 nM): 12.2%
Cc1ccc(C(=O)Nc2cc(C(=O)O)sc2Oc2ccc(C#N)cc2)cc1 |  |  | inhibition ([1]; HEK293, dose 100.0 nM): 16.2%
Cc1ccc(Oc2sc(C(=O)O)cc2NC(=O)c2cnc(C)cn2)cn1 | 71 | 1060 | 
Cc1ccc(C(=O)Nc2cc(C(=O)O)sc2Oc2ccccc2F)cc1 | 66 | 104 | 
Cc1ccc(C(=O)Nc2cc(C(=O)O)sc2Oc2ccc(C(C)C)cc2)cc1 | 54.3 |  | 
CCCSc1nc(N[C@@H]2C[C@H]2c2ccc(F)c(F)c2)c2nnn([C@@H]3C[C@H](OCCO)[C@@H](O)[C@H]3O)c2n1 [TICAGRELOR] |  |  | IC50 (P2Y purinoceptor 12): 1280 nM
O=C(O)c1cc(-c2ccc(C3CCNCC3)cc2)c2ccc(-c3ccc(C(F)(F)F)cc3)cc2c1 [PPTN] |  |  | solubility [2]: < 0.005 µg/mL; solubility ([3]; SGF, read-out: solubility): < 0.005 µg/mL; solubility [4]: < 0.005 µg/mL; solubility [5]: < 0.005 µg/mL
Cc1ccc(C(=O)Nc2cc(C(=O)O)sc2Oc2cccnc2)cc1 | 62 |  | 
Cc1ccc(C(=O)Nc2cc(C(=O)O)sc2Oc2cccc(Cl)c2)cc1 |  |  | inhibition ([1]; HEK293, dose 100.0 nM): 36.2%
Cc1ccc(Oc2sc(C(=O)O)cc2NC(=O)c2ccc(C#N)cc2)cn1 |  |  | inhibition ([1]; HEK293, dose 100.0 nM): 33%
S=C=Nc1cccc(NC(=S)NCCCCNC(=S)Nc2cccc(N=C=S)c2)c1 |  |  | IC50 (P2Y purinoceptor 6): 23.4 nM
CCCc1ccc(C(=O)Nc2cc(C(=O)O)sc2Oc2ccc(C)nc2)cc1 | 44.3 |  | 
Cc1ccc(Oc2sc(C(=O)O)cc2NC(=O)c2ccc(C)nc2)cn1 |  |  | inhibition ([1]; HEK293, dose 100.0 nM): 30.3%
COc1ccc(C(=O)Nc2cc(C(=O)O)sc2Oc2ccc(C)nc2)cc1 | 112 | 1.29 | solubility [2]: 0.063 µg/mL (≈ 0.164 µM); solubility ([3]; SGF, read-out: solubility): 2.26 µg/mL (≈ 5.88 µM); solubility [4]: 2.33 µg/mL (≈ 6.06 µM); Stability [6]: Stable; solubility [5]: 0.423 µg/mL (≈ 1.1 µM)

Structure (SMILES) | inhibition [1, 7] [%] | IC50 (P2Y purinoceptor 14) [nM] | other results
Cc1ccc(C(=O)Nc2cc(C(=O)O)cc(-c3ccoc3)c2)cc1 |  |  | solubility [2]: 0.078 µg/mL (≈ 0.243 µM); solubility ([3]; simulated gi fluid): 0.069 µg/mL (≈ 0.215 µM); solubility [4]: 0.878 µg/mL (≈ 2.73 µM); solubility [5]: 0.471 µg/mL (≈ 1.47 µM)
Cc1ccc(Oc2sc(C(=O)O)cc2NC(=O)c2ccc(N(C)C)cc2)cn1 | 40.8 |  | 
CCc1ccc(Oc2sc(C(=O)O)cc2NC(=O)c2ccc(C)cc2)cc1 | 67.4 | 81.3 | 
CC(=O)c1ccc(Oc2sc(C(=O)O)cc2NC(=O)c2ccc(C)cc2)cc1 |  |  | inhibition ([1]; HEK293, dose 100.0 nM): 34.5%
Cc1ccc(C(=O)Nc2cc(C(=O)O)sc2Oc2ccc(OC(F)(F)F)cc2)cc1 |  |  | inhibition ([1]; HEK293, dose 100.0 nM): 32.7%
Cc1ccc(Oc2sc(C(=O)O)cc2NC(=O)c2ccc(C(F)(F)F)cc2)cn1 |  |  | inhibition ([1]; HEK293, dose 100.0 nM): 39.7%
Cc1ccc(C(=O)Nc2cc(C(=O)O)sc2Oc2ccc(C(C)(C)C)cc2)cc1 | 54.4 |  | 
Cc1ccc(C(=O)Nc2cc(C(=O)O)nn2Cc2ccc(F)cc2)cc1 |  |  | solubility [2]: 0.088 µg/mL (≈ 0.249 µM); solubility ([3]; simulated gi fluid): 0.085 µg/mL (≈ 0.241 µM); solubility [4]: 0.318 µg/mL (≈ 0.9 µM); solubility [5]: 0.203 µg/mL (≈ 0.574 µM)
Cc1ccc(Oc2sc(C(=O)O)cc2NC(=O)c2ccc(F)cc2)cn1 | 46.6 |  | 
Cc1ccc(C(=O)Nc2cc(C(=O)O)sc2Oc2ccsn2)cc1 | 60.3 |  | 
O=C(C1CC1)N1CCc2cc(Br)c(S(=O)(=O)Nc3ccc(C(F)(F)F)c(Cl)c3)cc21 |  |  | IC50 (P2Y purinoceptor 4): 13000 nM
Cc1ccc(C(=O)Nc2cc(C(=O)O)sc2Oc2ccc(Cl)cc2)cc1 |  |  | inhibition ([1]; HEK293, dose 100.0 nM): 39.9%
Cc1ccc(Sc2sc(C(=O)O)cc2NC(=O)c2ccc(C)cc2)cc1 | 88.4 | 6.53 | 
COc1ccccc1Oc1sc(C(=O)O)cc1NC(=O)c1ccc(C)cc1 | 48.1 |  | 
Cc1ccc(Oc2sc(C(=O)O)cc2NC(=O)c2cnn(C)c2)cn1 | 42.8 |  | 
Cc1ccc(Oc2sc(C(=O)O)cc2NC(=O)c2ccc(Cl)cc2)cn1 |  |  | inhibition ([1]; HEK293, dose 100.0 nM): 21%
